Tests used:
[1] = tested on: Tyrosine-protein kinase ABL1 (Homo sapiens), P00519 [F317I]; assay: (§1) Selectivity interaction (KinomeScan (DiscoverX)) EUB0001079a ABL1; conditions: at 1 µM
[2] = tested on: Tyrosine-protein kinase ABL1 (Homo sapiens), P00519 [F317L]; assay: as §1; conditions: at 1 µM
[3] = tested on: Tyrosine-protein kinase ABL1 (Homo sapiens), P00519 [H396P]; assay: as §1; conditions: at 1 µM
[4] = tested on: Tyrosine-protein kinase ABL1 (Homo sapiens), P00519 [M351T]; assay: as §1; conditions: at 1 µM
[5] = tested on: Tyrosine-protein kinase ABL1 (Homo sapiens), P00519 [Q252H]; assay: as §1; conditions: at 1 µM
[6] = tested on: Tyrosine-protein kinase ABL1 (Homo sapiens), P00519 [T315I]; assay: as §1; conditions: at 1 µM
[7] = molecular target: Tyrosine-protein kinase ABL1 (Homo sapiens, UniProt P00519); assay: as §1; conditions: at 1 µM
[8] = molecular target: T1, Mitogen-activated protein kinase kinase kinase 19 (Homo sapiens) (UniProt Q56UN5); assay: Selectivity interaction (KinomeScan (DiscoverX)) EUB0000607a MAP3K19; conditions: at 10 µM
T1 sequence (whole entry): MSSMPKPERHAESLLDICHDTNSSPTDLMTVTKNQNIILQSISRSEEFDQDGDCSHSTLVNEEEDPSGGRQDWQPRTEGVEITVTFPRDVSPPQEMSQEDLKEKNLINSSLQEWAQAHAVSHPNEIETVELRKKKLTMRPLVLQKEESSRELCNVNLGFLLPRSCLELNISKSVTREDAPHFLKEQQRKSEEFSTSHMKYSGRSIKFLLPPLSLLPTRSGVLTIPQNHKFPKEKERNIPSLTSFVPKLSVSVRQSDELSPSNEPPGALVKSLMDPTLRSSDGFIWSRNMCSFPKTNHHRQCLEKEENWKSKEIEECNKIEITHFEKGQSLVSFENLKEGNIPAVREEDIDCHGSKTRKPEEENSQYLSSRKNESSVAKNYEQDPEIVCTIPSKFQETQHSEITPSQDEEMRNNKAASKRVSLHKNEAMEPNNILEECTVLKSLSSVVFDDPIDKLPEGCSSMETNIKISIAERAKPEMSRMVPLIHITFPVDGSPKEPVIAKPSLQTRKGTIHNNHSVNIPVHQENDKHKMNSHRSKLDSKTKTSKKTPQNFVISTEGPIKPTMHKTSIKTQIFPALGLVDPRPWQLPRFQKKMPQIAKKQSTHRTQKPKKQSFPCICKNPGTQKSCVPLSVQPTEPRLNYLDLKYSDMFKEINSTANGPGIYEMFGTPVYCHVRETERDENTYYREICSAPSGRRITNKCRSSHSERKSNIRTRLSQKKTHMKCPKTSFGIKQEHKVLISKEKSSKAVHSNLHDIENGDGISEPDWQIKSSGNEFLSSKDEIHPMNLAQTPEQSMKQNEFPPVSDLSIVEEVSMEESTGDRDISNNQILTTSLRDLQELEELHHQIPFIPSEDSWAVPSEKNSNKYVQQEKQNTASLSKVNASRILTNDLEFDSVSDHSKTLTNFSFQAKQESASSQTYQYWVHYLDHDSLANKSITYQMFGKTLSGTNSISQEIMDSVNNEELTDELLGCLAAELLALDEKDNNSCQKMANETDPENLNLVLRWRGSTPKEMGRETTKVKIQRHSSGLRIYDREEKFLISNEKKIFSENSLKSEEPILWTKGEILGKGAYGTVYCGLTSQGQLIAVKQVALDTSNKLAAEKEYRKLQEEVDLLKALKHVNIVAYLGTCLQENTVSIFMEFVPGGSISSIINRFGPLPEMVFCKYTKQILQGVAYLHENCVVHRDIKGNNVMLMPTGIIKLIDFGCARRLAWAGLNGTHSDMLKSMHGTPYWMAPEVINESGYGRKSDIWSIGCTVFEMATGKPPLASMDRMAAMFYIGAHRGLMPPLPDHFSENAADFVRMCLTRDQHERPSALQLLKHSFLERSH

[9] = molecular target: RAC-beta serine/threonine-protein kinase (Homo sapiens) (UniProt P31751); assay: Selectivity interaction (ActivX KiNativ screen (ex vivo kinase selectivity in human PBMCs)) EUB0001619a AKT2; type: cell-based; conditions: PBMC, at 1 µM
RAC-beta serine/threonine-protein kinase (Homo sapiens), sequence (P31751 whole entry): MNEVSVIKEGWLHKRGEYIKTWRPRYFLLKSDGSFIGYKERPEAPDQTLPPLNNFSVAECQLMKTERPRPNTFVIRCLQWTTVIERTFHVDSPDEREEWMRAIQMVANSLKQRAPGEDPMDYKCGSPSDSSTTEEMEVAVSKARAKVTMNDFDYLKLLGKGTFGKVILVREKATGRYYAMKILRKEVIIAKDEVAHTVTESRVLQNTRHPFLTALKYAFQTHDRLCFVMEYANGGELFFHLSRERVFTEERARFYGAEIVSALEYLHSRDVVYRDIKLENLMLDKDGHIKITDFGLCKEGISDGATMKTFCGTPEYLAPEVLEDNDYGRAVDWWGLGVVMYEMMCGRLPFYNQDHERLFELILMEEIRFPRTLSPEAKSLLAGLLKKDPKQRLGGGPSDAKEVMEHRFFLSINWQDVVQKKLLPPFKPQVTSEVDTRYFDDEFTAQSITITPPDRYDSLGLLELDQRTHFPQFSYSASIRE

[10] = molecular target: T2, Aurora kinase A (Homo sapiens) (UniProt O14965); conditions: at 10 µM
T2 sequence (whole entry): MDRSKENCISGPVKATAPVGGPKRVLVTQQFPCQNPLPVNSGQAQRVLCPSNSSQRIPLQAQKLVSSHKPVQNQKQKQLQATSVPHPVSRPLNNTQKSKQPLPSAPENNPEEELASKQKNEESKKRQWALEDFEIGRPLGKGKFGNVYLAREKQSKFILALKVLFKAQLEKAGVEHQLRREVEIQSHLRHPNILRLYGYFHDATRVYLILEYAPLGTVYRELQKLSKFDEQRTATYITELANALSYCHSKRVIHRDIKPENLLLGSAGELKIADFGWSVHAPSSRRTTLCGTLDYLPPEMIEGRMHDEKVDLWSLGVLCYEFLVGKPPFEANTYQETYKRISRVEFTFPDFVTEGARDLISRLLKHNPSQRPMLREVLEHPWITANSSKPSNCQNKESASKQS

[11] = molecular target: Phosphatidylinositol 3-kinase catalytic subunit type 3 (Homo sapiens, UniProt Q8NEB9); assay: Selectivity interaction (ActivX KiNativ screen (kinase selectivity in THP-1 cell lysates)) EUB0000639a PIK3C3; type: subcellular; conditions: lysate, at 1 µM
Phosphatidylinositol 3-kinase catalytic subunit type 3, sequence (Q8NEB9 whole entry): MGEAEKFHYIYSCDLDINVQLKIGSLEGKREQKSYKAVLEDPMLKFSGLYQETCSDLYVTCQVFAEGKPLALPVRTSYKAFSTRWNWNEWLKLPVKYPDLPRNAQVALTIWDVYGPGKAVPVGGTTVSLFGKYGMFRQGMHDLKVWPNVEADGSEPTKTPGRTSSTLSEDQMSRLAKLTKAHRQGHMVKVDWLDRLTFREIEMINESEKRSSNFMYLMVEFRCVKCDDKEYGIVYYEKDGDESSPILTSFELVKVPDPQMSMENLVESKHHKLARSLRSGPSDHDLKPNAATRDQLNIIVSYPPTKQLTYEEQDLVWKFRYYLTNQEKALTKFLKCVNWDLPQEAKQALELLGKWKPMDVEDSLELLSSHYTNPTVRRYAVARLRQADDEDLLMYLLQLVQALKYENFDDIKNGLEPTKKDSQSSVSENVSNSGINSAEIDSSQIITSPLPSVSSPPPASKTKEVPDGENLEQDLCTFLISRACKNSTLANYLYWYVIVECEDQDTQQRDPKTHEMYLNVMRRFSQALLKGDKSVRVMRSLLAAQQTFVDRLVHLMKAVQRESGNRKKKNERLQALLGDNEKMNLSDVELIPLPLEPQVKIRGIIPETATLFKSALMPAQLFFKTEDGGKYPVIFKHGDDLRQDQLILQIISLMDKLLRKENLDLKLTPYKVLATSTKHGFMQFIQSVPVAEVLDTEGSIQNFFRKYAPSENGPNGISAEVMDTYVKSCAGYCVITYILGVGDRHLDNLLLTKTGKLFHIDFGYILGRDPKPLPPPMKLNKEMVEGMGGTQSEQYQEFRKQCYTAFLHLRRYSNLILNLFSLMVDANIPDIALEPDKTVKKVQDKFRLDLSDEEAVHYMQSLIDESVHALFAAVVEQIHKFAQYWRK

[12] = molecular target: T3, MAP/microtubule affinity-regulating kinase 4 (Homo sapiens) (UniProt Q96L34); assay: Selectivity interaction (KinomeScan (DiscoverX)) EUB0001049a MARK4; conditions: at 1 µM
T3 sequence (whole entry): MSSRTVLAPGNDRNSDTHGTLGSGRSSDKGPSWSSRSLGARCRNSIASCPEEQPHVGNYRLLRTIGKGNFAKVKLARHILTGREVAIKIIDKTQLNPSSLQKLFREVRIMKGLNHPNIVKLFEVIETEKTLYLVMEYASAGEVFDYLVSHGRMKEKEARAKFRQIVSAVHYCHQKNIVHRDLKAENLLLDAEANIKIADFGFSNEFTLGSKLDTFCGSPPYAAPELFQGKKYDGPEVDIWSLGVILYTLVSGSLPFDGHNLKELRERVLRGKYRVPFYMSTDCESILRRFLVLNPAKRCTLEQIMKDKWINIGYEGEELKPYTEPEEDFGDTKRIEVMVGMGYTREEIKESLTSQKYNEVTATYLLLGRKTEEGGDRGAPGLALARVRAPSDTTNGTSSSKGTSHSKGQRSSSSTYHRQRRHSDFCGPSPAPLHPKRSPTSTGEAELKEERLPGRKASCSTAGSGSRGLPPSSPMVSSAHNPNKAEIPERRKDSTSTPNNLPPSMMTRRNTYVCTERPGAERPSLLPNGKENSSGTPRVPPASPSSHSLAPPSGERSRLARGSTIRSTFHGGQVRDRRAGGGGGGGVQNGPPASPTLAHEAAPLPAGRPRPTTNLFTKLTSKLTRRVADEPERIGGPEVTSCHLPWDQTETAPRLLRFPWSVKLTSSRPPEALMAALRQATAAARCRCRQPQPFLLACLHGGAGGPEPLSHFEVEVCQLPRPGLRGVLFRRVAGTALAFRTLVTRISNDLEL

Molecule `Nc1cnc(N2CCc3cc(S(=O)(=O)Nc4c(F)cc(Cl)cc4F)cc(N4CCCC4=O)c32)nc1` [TP-020n] has a % of control [1] of 100%, a % of control [2] of 99% and a % of control [3] of 94%. For the same molecule, the % of control [4] was 100%, the % of control [5] was 100% and the % of control [6] was 100%. For the same molecule, the % of control [7] was 100%.
`CNC(=O)Nc1ccc(-c2nc(N3CC4CCC(C3)O4)c3cnn(C4CCC5(CC4)OCCO5)c3n2)cc1` gave a % of control [8] of 100%.
Molecule `N#Cc1cccc(-c2c[nH]c3ncnc(N4CCOCC4)c23)c1` has a % of inhibition [9] of 7%.
`Cc1cc([C@@H](C)Nc2ccccc2C(=O)O)c2nc(N3CCOCC3)cc(=O)n2c1` [AZD-6482] gave a % of control [10] of 100%.
`CC[C@@H]1[C@H](F)C(=O)N[C@@H]1COc1nccc2cc(C(N)=O)c(OC)cc12` [ZIMLOVISERTIB] showed a % of inhibition [11] of -13.7%.
`COc1cc(Nc2nc(C)cc(-c3cnn4nc(OC)ccc34)n2)cc(C(F)(F)F)c1` gave a % of control [12] of 100%.

Source: ChEMBL document CHEMBL5465560, “Selectivity Literature for EUbOPEN Chemogenomic Library” (2024)
